Assay results as given in patent publication US20230146455A1, “TREATMENT OF INFLAMMATORY DISEASES WITH PEPTIDES AND PHARMACEUTICAL COMPOSITIONS” (Yuyu Pharma, Inc., priority 2020, published 2023).
“And” between values parts separate entries of the source, which are not always exact repeats. Identical values can stand only once. Where a SMILES comes first, the peptide text is derived from it. [ ]: non-standard residue; d: D form. Hyp = O=C(O)[C@@H]1C[C@@H](O)CN1

Assays:
[1] = system: cytokine and chemokine release in human peripheral blood mononuclear cells (hPBMCs); assay: Luminex multiplex, 30 cytokines and chemokines, LPS stimulated hPBMCs, main study (Example 8, Study 1), whole panel; format: cell-based
Method: Human PBMCs frozen in a cryopreserve was thawed, washed with Hank's Balanced Salt Solution containing 10% Fetal bovine serum, and seeded onto a 24-well plate at a density of 1×10^6 cells/well with culture RPMI media containing 10% Fetal bovine serum in growth media in a 24 well plate for 12, 24, and 48 hrs and maintained at 37° C. in an atmosphere of 95% air and 5% CO2.
(§1) Human PBMCs were pretreated with YY-101, YDE-011, YDE-043 or reference compound; Xiidra® at various concentration (ranging from […] to 500 nM) for 2 h before stimulation. An equal volume of 0.5% DMSO was used as a vehicle control. Then, the cells were treated with LPS at 5 ug/ml, which was selected based on the pilot study. The supernatants from treated cells were harvested at 24 h and placed in a 96 well for Luminex cytokine & chemokine profiling using a Luminex 200 multiplex assay (Luminex; R&D system, USA).
(§2) The main study arm with triplicate wells per group in a 24-well plate: • 1. Blank • 2. PBMC: 0.5% DMSO • 3. PBMC+LPS (5 ug/ml) • 4. PBMC+YY-101 500 nM • 5. PBMC+YY-101 50 nM • 6. PBMC+YY-101 5 nM • 7. PBMC+YY-101 0.5 nM • 8. PBMC+LPS (5 ug/ml)+Xiidra® 500 nM • 9. PBMC+LPS (5 ug/ml)+Xiidra® 50 nM • 10. PBMC+LPS (5 ug/ml)+Xiidra® 5 nM • 11. PBMC+LPS (5 ug/ml)+Xiidra® 0.5 nM • 12. PBMC+LPS (5 ug/ml)+Xiidra® 0.05 nM • 13. PBMC+LPS (5 ug/ml)+Xiidra® 0.005 nM • 14. PBMC+LPS (5 ug/ml)+YY-101 500 nM • 15. PBMC+LPS (5 ug/ml)+YY-101 50 nM • 16. PBMC+LPS (5 ug/ml)+YY-101 5 nM • 17. PBMC+LPS (5 ug/ml)+YY-101 0.5 nM • 18. PBMC+LPS (5 ug/ml)+YY-101 0.05 nM • 19. PBMC+LPS (5 ug/ml)+YY-101 0.005 nM • 20. PBMC+LPS (5 ug/ml)+YDE-011 500 nM • 21. PBMC+LPS (5 ug/ml)+YDE-011 50 nM • 22. PBMC+LPS (5 ug/ml)+YDE-011 5 nM • 23. PBMC+LPS (5 ug/ml)+YDE-011 0.5 nM • 24. PBMC+LPS (5 ug/ml)+YDE-011 0.05 nM • 25. PBMC+LPS (5 ug/ml)+YDE-011 0.005 nM • 26. PBMC+LPS (5 ug/ml)+YDE-043 500 nM • 27. PBMC+LPS (5 ug/ml)+YDE-043 50 nM • 28. PBMC+LPS (5 ug/ml)+YDE-043 5 nM • 29. PBMC+LPS (5 ug/ml)+YDE-043 0.5 nM • 30. PBMC+LPS (5 ug/ml)+YDE-043 0.05 nM • 31. PBMC+LPS (5 ug/ml)+YDE-043 0.005 nM
Multiplex assay was used to measure 30 cytokines and chemokines. The 1:200 diluted cell supernatant and serial dilution of the standard were dispensed into a 96 well plate at 50 ul/well. Then, the pre-mixed cocktail of antibody-coated magnetic beads was dispensed at 50 ul/well and incubated at room temperature for 2 h in a horizontal orbital microplate shaker at 800±500 rpm. The beads were washed using a magnetic device to prevent loss. The biotin-antibody was dispensed in 50 ul of each well and incubated at room temperature for 1 h in a shaker at 800±500 rpm. […] The data was calculated with a standard five-parameter logistic nonlinear regression analysis of the data (xPonent software 4.2, USA). […]

IL-2 = assay: Example 8 main study Luminex, LPS hPBMCs: IL-2; format: cell-based, human
Method: as §1, §2
Multiplex assay was used to measure 30 cytokines and chemokines. The 1:200 diluted cell supernatant and serial dilution of the standard were dispensed into a 96 well plate at 50 ul/well. Then, the pre-mixed cocktail of antibody-coated magnetic beads was dispensed at 50 ul/well and incubated at room temperature for 2 h in a horizontal orbital microplate shaker at 800±500 rpm. The beads were washed using a magnetic device to prevent loss. The biotin-antibody was dispensed in 50 ul of each well and incubated at room temperature for 1 h in a shaker at 800±500 rpm. After washing, streptavidin-PE was added at 50 ul/well and incubated at room temperature for 30 min in a shaker under the same conditions. Finally, after washing, wash buffer (100 ul/well) was added to the plate and incubated in a shaker for 2 min. The Luminex™ 200 setting were set according to the manufacturer's protocol. The data was calculated with a standard five-parameter logistic nonlinear regression analysis of the data (xPonent software 4.2, USA). Results were presented as concentration (ng/ml or pg/ml).

[2] = PBMC + LPS(5 ug/ml) + compound 0.005 nM, 24 h
[3] = PBMC + LPS(5 ug/ml) + compound 0.05 nM, 24 h
[4] = PBMC + LPS(5 ug/ml) + compound 0.5 nM, 24 h
[5] = PBMC + LPS(5 ug/ml) + compound 5 nM, 24 h
[6] = PBMC + LPS(5 ug/ml) + compound 50 nM, 24 h
[7] = PBMC + LPS(5 ug/ml) + compound 500 nM, 24 h

## CC(C)C[C@H](NC(=O)CNC(=O)[C@H](CC(=O)O)NC(=O)[C@H](CCC(N)=O)NC(=O)CNC(=O)[C@@H]1C[C@@H](O)CN1)C(=O)N[C@@H](C)C(=O)NCC(=O)N1CCC[C@H]1C(=O)N[C@@H](CCCCN)C(=O)O [YY-101] (H-[Hyp]GQDGLAGPK-OH; N-terminus and C-terminus assumed)
[1]; LPS 5 ug/mL 24 hrs, up to 500 nM
  LPS-induced cytokine/chemokine levels, whole panel (in words): potently and significantly reduced pro-inflammatory cytokine/chemokine production
[1]; no LPS
  basal levels of cytokine production (in words): didn't affect the basal levels of cytokine production
IL-2; [2]
  IL-2 Concentration, individual wells: 2746.7 pg/mL and 2707.7 pg/mL and 2551.7 pg/mL
  IL-2 MFI, individual wells: 64.5 and 64.0 and 62.0
IL-2; PBMC + LPS(5 ug/ml) + compound 0.005 nM, 24 h, LPS alone Mean 80.5
  IL-2 MFI, Mean: 63.5
IL-2; PBMC + LPS(5 ug/ml) + compound 0.005 nM, 24 h, LPS alone Mean 3988.7
  IL-2 Concentration, Mean: 2668.7 pg/mL
IL-2; [3]
  IL-2 Concentration, individual wells: 2785.6 pg/mL and 3174.7 pg/mL and 3058.1 pg/mL
  IL-2 MFI, individual wells: 65.0 and 70.0 and 68.5
IL-2; PBMC + LPS(5 ug/ml) + compound 0.05 nM, 24 h, LPS alone Mean 80.5
  IL-2 MFI, Mean: 67.8
IL-2; PBMC + LPS(5 ug/ml) + compound 0.05 nM, 24 h, LPS alone Mean 3988.7
  IL-2 Concentration, Mean: 3006.1 pg/mL
IL-2; [4]
  IL-2 Concentration, individual wells: 2863.5 pg/mL and 2785.6 pg/mL and 2824.6 pg/mL
  IL-2 MFI, individual wells: 66.0 and 65.0 and 65.5
IL-2; PBMC + LPS(5 ug/ml) + compound 0.5 nM, 24 h, LPS alone Mean 80.5
  IL-2 MFI, Mean: 65.5
IL-2; PBMC + LPS(5 ug/ml) + compound 0.5 nM, 24 h, LPS alone Mean 3988.7
  IL-2 Concentration, Mean: 2824.6 pg/mL
IL-2; [5]
  IL-2 Concentration, individual wells: 2473.6 pg/mL and 2629.7 pg/mL and 2941.4 pg/mL
  IL-2 MFI, individual wells: 61.0 and 63.0 and 67.0
IL-2; PBMC + LPS(5 ug/ml) + compound 5 nM, 24 h, LPS alone Mean 80.5
  IL-2 MFI, Mean: 63.7
IL-2; PBMC + LPS(5 ug/ml) + compound 5 nM, 24 h, LPS alone Mean 3988.7
  IL-2 Concentration, Mean: 2681.6 pg/mL
IL-2; [6]
  IL-2 Concentration, individual wells: 2473.6 pg/mL and 2707.7 pg/mL and 2863.5 pg/mL
  IL-2 MFI, individual wells: 61.0 and 64.0 and 66.0
IL-2; PBMC + LPS(5 ug/ml) + compound 50 nM, 24 h, LPS alone Mean 80.5
  IL-2 MFI, Mean: 63.7
IL-2; PBMC + LPS(5 ug/ml) + compound 50 nM, 24 h, LPS alone Mean 3988.7
  IL-2 Concentration, Mean: 2681.6 pg/mL
IL-2; [7]
  IL-2 Concentration, individual wells: 2707.7 pg/mL and 2863.5 pg/mL and 2551.7 pg/mL
  IL-2 MFI, individual wells: 64.0 and 66.0 and 62.0
IL-2; PBMC + LPS(5 ug/ml) + compound 500 nM, 24 h, LPS alone Mean 80.5
  IL-2 MFI, Mean: 64.0
IL-2; PBMC + LPS(5 ug/ml) + compound 500 nM, 24 h, LPS alone Mean 3988.7
  IL-2 Concentration, Mean: 2707.6 pg/mL
IL-2; PBMC + compound 0.5 nM, no LPS
  IL-2 Concentration, individual wells: 173.5 pg/mL and 337.0 pg/mL
  IL-2 MFI, individual wells: 32.0 and 34.0
IL-2; PBMC + compound 0.5 nM, no LPS, 0.5% DMSO Mean 30.7
  IL-2 MFI, Mean: 33.0
IL-2; PBMC + compound 0.5 nM, no LPS, 0.5% DMSO Mean 61.8
  IL-2 Concentration, Mean: 255.2 pg/mL
IL-2; PBMC + compound 5 nM, no LPS
  IL-2 Concentration, individual wells: 173.5 pg/mL
  IL-2 MFI, individual wells: 32.0
